Assay results: patent publication US9174995B2, “Pyrrolotriazinone derivatives” (Merck Patent GmbH, priority 2012, dated 2015)

Assays:
[1] = target: T1, GST-tagged Tankyrase-1 (1023-1327 aa) (Homo sapiens, UniProt O95271); test: Tankyrase 1 autoparsylation assay (HTRF enzyme assay); format: biochemical
T1 construct: GST-tagged Tankyrase-1 (1023-1327 aa)
Experimental: (§1) Biochemical Activity Testing of Tankyrase 1 and 2: Autoparsylation Assay
(§2) The autoparsylation assay is run in two steps: the enzymatic reaction in which GST-tagged Tankyrase-1, resp Tankyrase-2 transferred biotinylated ADP-ribose to itself from biotinylated NAD as co-substrate and the detection reaction where a time resolved FRET between cryptate labelled anti-GST bound to the GST tag of the enzyme and Xlent® labelled-streptavidin bound the biotin-parsylation residue is analysed. The autoparsylation activity was detectable directly via the increase in HTRF signal.
(§3) The autoparsylation assay is performed as 384-well HTRF® (Cisbio, Codolet, France) assay format in Greiner low volume nb 384-well microtiter plates and is used for high throughput screen. 250 nM GST-tagged Tankyrase-1 (1023-1327 aa), respectively about 250 nM GST-tagged Tankyrase-2 (873-1166 aa) and 5 μM bio-NAD (Biolog, Life science Inst., Bremen, Germany) as co-substrate are incubated in a total volume of 5 μl (50 mM HEPES, 4 mM Mg-chloride, 0.05% Pluronic F-68, 1.4 mM DTT, 0.5% DMSO, pH 7.7) in the absence or presence of the test compound (10 dilution concentrations) for 90 min at 30° C. The reaction is stopped by the addition of 1 μl 50 mM EDTA solution. 2 μl of the detection solution (1.6 μM SA-Xlent® (Cisbio, Codolet, France), 7.4 nM Anti-GST-K® (Eu-labelled anti-GST, Cisbio, Codolet, France) in 50 mM HEPES, 800 mM KF, 0.1% BSA, 20 mM EDTA, 0.1% CHAPS, pH 7.0) are added. After 1 h incubation at room temperature the HTRF is measured with an Envision multimode reader (Perkin Elmer LAS Germany GmbH) at excitation wavelength 340 nm (laser mode) and emission wavelengths 615 nm and 665 nm. The ratio of the emission signals is determined. The full value used is the inhibitor-free reaction. The pharmacological zero value used is XAV-939 (Tocris) in a final concentration of 5 μM. The inhibitory values (IC50) are determined using either the program Symyx Assay Explorer® or Condosseo® from GeneData.

[2] = target: T2, GST-tagged Tankyrase-2 (873-1166 aa) (Homo sapiens, UniProt Q9H2K2); test: Tankyrase 2 autoparsylation assay (HTRF enzyme assay); format: biochemical
T2 construct: GST-tagged Tankyrase-2 (873-1166 aa)
T2 sequence (Q9H2K2 873-1166): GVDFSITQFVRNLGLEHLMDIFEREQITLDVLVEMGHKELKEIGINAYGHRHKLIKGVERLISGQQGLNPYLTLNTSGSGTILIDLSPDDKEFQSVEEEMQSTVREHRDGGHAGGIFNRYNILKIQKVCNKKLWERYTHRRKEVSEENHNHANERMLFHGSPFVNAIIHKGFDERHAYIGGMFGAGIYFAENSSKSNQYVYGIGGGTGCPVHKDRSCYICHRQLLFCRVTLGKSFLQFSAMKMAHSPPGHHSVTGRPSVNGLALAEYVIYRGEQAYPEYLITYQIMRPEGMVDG
Experimental: as §1, §2, §3

[3] = target: T3, GST-tagged Tnks-1 (1023-1327 aa) (Homo sapiens, UniProt O95271); test: TNKS1 activity ELISA (autoparsylation assay); format: biochemical
T3 construct: GST-tagged Tnks-1 (1023-1327 aa, prepared in-house); made in house
T3 sequence (O95271 1023-1327): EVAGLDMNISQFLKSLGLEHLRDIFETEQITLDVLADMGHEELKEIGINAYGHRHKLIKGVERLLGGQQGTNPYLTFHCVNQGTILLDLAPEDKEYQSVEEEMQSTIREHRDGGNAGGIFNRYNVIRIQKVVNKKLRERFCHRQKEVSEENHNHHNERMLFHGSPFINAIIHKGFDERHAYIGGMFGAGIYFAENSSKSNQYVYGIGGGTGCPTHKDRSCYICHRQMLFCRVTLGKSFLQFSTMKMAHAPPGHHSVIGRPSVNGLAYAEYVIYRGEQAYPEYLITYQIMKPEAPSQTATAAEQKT
Experimental: (§4) Description of the TNKS1 and TNKS2 ELISA Assay
(§5) Biochemical Activity Testing of TNKS 1 and 2: Activity ELISA (Autoparsylation Assay)
(§6) For analysis of autoparsylation activity of TNKS 1 and 2 an activity ELISA is performed: In the first step GST tagged TNKS is captured on a Glutathione coated plate. Then the activity assay with biotinylated NAD is performed in the absence/presence of the compounds. During the enzymatic reaction GST tagged TNKS transfers biotinylated ADP-ribose to itself from biotinylated NAD as co-substrate. For the detection streptavidin-HRP conjugate is added that binds to the biotinylated TNKS and is thereby captured to the plates. The amount of biotinylated resp. autoparsylated TNKS is detected with a luminescence substrate for HRP. The level of the luminescence signal correlats directly with the amount of autoparsylated TNKS and therefore with activity of TNKS.
(§7) The activity ELISA is performed in 384 well Glutathione coated microtiter plates (Express capture Glutathione coated plate, Biocat, Heidelberg, Germany). The plates are pre-equilibrated with PBS. Then the plates are incubated with 50 μl 20 ng/well GST-tagged Tnks-1 (1023-1327 aa, prepared in-house), respectively GST-tagged Tnks-2 (873-1166 aa, prepared in-house) in assay buffer (50 mM HEPES, 4 mM Mg-chloride, 0.05% Pluronic F-68, 2 mM DTT, pH 7.7) overnight at 4° C. The plates are washed 3 times with PBS-Tween-20. The wells are blocked by incubation at room temperature for 20 minutes with 50 μl blocking buffer (PBS, 0.05% Tween-20, 0.5% BSA). Afterwards the plates are washed 3 times with PBS-Tween-20. The enzymatic reaction is performed in 50 μl reaction solution (50 mM HEPES, 4 mM Mg-chloride, 0.05% Pluronic F-68, 1.4 mM DTT, 0.5% DMSO, pH 7.7) with 10 μM bio-NAD (Biolog, Life science Inst., Bremen, Germany) as co-substrate in the absence or presence of the test compound (10 dilution concentrations) for 1 hour at 30° C. The reaction is stopped by 3 times washing with PBS-Tween-20. For the detection 50 μl of 20 ng/μl Streptavidin, HRP conjugate (MoBiTec, Göttingen, Germany) in PBS/0.05%Tween-20/0.01%BSA are added and the plates are incubated for 30 minutes at room temperature. After three times washing with PBS-Tween-20 50 μl of SuperSignal ELISA Femto Maximum sensitivity substrate solution (ThermoFisherScientific (Pierce), Bonn, Germany) are added. Following a 1 minute incubation at room temperature luminescence signals are measured with an Envision multimode reader (Perkin Elmer LAS Germany GmbH) at 700 nm. The full value used is the inhibitor-free reaction. The pharmacological zero value used is XAV-939 (Tocris) in a final concentration of 5 μM. The inhibitory values (IC50) are determined using either the program Symyx Assay Explorer® or Condosseo® from GeneData.

[4] = target: T4, GST-tagged Tnks-2 (873-1166 aa) (Homo sapiens, UniProt Q9H2K2); test: TNKS2 activity ELISA (autoparsylation assay); format: biochemical
T4 construct: GST-tagged Tnks-2 (873-1166 aa, prepared in-house); made in house
T4 sequence (Q9H2K2 873-1166): as the sequence (Q9H2K2 873-1166) above
Experimental: as §4, §5, §6, §7

Tankyrases = test: Cellular inhibition of Tankyrase: increase of Axin2 level in DLD1 cells (Luminex); format: cell-based; conditions: 24 hours, read-out: EC50 tankyrase ½ (cell assay)
Experimental: Measurement of Cellular Inhibition of Tankyrase
Since Tankyrases have been described to modulate cellular level of Axin2 (Huang et al., 2009; Nature) the increase of Axin2 level is used as readout for determination of cellular inhibition of Tankyrases in a Luminex based assay.
Cells of the colon carcinoma cell line DLD1 are plated in 96 well plates with 1.5×10^4 cells per well. Next day, cells are treated with a serial dilution of test compound in seven steps as triplicates with a final DMSO concentration of 0.3%. After 24 hours, cells are lysed in lysis buffer (20 mM Tris/HCl pH 8.0, 150 mM NaCl, 1% NP40, 10% Glycerol) and lysates are cleared by centrifugation through a 96 well filter plate (0.65 μm). Axin2 protein is isolated from cell lysates by incubation with a monoclonal anti-Axin2 antibody (R&D Systems #MAB6078) that is bound to fluorescent carboxybeads. Then, bound Axin2 is specifically detected with a polyclonal anti-Axin2 antibody (Cell Signaling #2151) and an appropriate PE-fluorescent secondary antibody. The amount of isolated Axin2 protein is determined in a Luminex^200 machine (Luminex Corporation) according to the manufacturer's instruction by counting 100 events per well. Inhibition of Tankyrase by test compounds results in higher levels of Axin2 which directly correlates with an increase of detectable fluorescence. As controls cells are treated with solvent alone (neutral control) and with a Tankyrase reference inhibitor IWR-2 (3E-06 M) which refers as control for maximum increase of Axin2. For analysis, the obtained data are normalized against the untreated solvent control and fitted for determination of the EC50 values using the Assay Explorer software (Accelrys).

DLD-1-cancer cells = conditions: cited from earlier work

T1 sequence (O95271 1023-1327): as the sequence (O95271 1023-1327) above

For `Cc1ccc(-c2nn3cccc3c(=O)[nH]2)cc1` [Compound A1, 2-p-tolyl-3H-pyrrolo[2,1-f][1,2,4]triazin-4-one], the IC50 [1] was < 300 nM, the IC50 [2] was < 300 nM and the IC50 [3] was < 300 nM. The IC50 [4] was < 300 nM.

For `COC(=O)c1ccc(-c2nn3cccc3c(=O)[nH]2)cc1` [Compound A2, 4-(4-oxo-3,4-dihydro-pyrrolo[2,1-f][1,2,4]triazin-2-yl)-benzoic acid methyl ester], the IC50 [1] was < 300 nM, the IC50 [2] was < 300 nM and the EC50 (Tankyrases) was 300 to 3000 nM.

With `CC(C)(C)c1ccc(-c2nn3cccc3c(=O)[nH]2)cc1` [Compound A3, 2-(4-tert-butyl-phenyl)-3H-pyrrolo[2,1-f][1,2,4]triazin-4-one] the IC50 [1] was < 300 nM, the IC50 [2] was 300 to 3000 nM and the EC50 (Tankyrases) was 300 to 3000 nM.

With `O=c1[nH]c(-c2ccc(Br)cc2)nn2cccc12` [Compound A6, 2-(4-bromo-phenyl)-3H-pyrrolo[2,1-f][1,2,4]triazin-4-one] the IC50 [1] was < 300 nM and the IC50 [2] was < 300 nM.

In the case of `CC(C)(N)c1ccc(-c2nn3cccc3c(=O)[nH]2)cc1` [Compound A16, 2-[4-(1-amino-1-methyl-ethyl)-phenyl]-3H-pyrrolo[2,1-f][1,2,4]-triazin-4-one], the IC50 [1] is reported as 300 to 3000 nM and the IC50 [2] is reported as 300 to 3000 nM.

In the case of `Cc1cc2c(=O)[nH]c(-c3ccc(C(C)(C)O)cc3)nn2n1` [Compound A17, 6-[4-(1-hydroxy-1-methyl-ethyl)-phenyl]-2-methyl-5H-1,5,7,7a-tetraaza-inden-4-one], the IC50 [1] is reported as 300 to 3000 nM, the IC50 [2] is reported as 300 to 3000 nM and the EC50 (Tankyrases) is reported as 3000 to 50000 nM. For the same compound, the IC50 [3] was 300 to 3000 nM and the IC50 [4] was 300 to 3000 nM.

For `Cc1ccc2c(=O)[nH]c(-c3ccc(C(C)(C)O)cc3)nn12` [Compound A19, 2-[4-(1-hydroxy-1-methyl-ethyl)-phenyl]-7-methyl-3H-pyrrolo[2,1-f][1,2,4]triazin-4-one], the IC50 [1] was < 300 nM, the IC50 [2] was < 300 nM and the EC50 (Tankyrases) was < 300 nM.

`CC(C)(O)c1ccc(-c2nn3c(C(F)(F)F)ccc3c(=O)[nH]2)cc1` [Compound A20, 2-[4-(1-hydroxy-1-methyl-ethyl)-phenyl]-7-trifluoromethyl-3H-pyrrolo[2,1-f][1,2,4]triazin-4-one] showed an IC50 [1] of 300 to 3000 nM and an IC50 [2] of 3000 to 50000 nM.

For `Oc1nc(-c2ccc(C(F)(F)F)cc2)nc2c1CSCC2` [XAV939], the “growth of DLD-1-cancer cells” value (DLD-1-cancer cells) is given as “inhibits growth”.
